Assay results as given in article PMC3001719, “The heme sensing response regulator HssR in Staphylococcus aureus but not the homologous RR23 in Listeria monocytogenes modulates susceptibility to the antimicrobial peptide plectasin” (BMC Microbiology, 2010).

Legend:
[1] = system: S. aureus 8325-4 hssR::bursa/pRMC2-hssRS; assay: Growth in TSB with plectasin; format: cell-based, Staphylococcus aureus; conditions: plectasin 35 μg/ml, 37°C, absorbance at 600 nm
Experimental: (§1) Overnight cultures of S. aureus were diluted to an absorbance at 600 nm of 0.05 in TSB with and without 4 μM hemin and/or 35 μg/ml plectasin and grown at 37°C. Measurements of the absorbance were made every 30 minutes.

[2] = system: S. aureus 15981 ΔTCS15 (hssRS) mutant; assay: Growth in TSB with plectasin; format: cell-based, Staphylococcus aureus; conditions: plectasin 35 μg/ml, 37°C, absorbance at 600 nm
Experimental: as §1

L. monocytogenes [3] = assay: Extracellular protein profile by SDS-PAGE; format: cell-based, Listeria monocytogenes; conditions: L. monocytogenes grown with or without plectasin overnight at 37°C in BHI; data not shown
Experimental: Prewarmed TSB and BHI (25 ml) in a 250 ml Erlenmeyer flask was inoculated with S. aureus strains and L. monocytogenes strains, respectively. These flasks were grown with and without plectasin at 37°C overnight (≈ 17 h) with shaking. The next morning, the exact absorbance at 600 nm of the cultures was measured, and 15 ml of culture was centrifuged to precipitate the cells (6 000 RPM; 7 min; 0°C). The supernatant was transferred to a 50 ml Blue cap bottle (placed in an ice/water bath), and the extracellular proteins were precipitated by adding one volume of ice-cold 96% EtOH and left in the refrigerator overnight for proteins to precipitate. Precipitated proteins were collected by centrifugation (11,000 RPM; 30 min; 0°C). Protein pellets were suspended in a volume of 50 mM Tris-HCl (pH 6.8) adjusted to the original absorbance of the overnight culture so that 15 ml of overnight culture with absorbance at 600 nm of 5.0 was suspended in 0.8 ml of 50 mM Tris-HCl (pH 6.8). A sample of 15 μl of the protein extracts was analysed on NuPAGE® 4-12% Bis-Tris gels (Invitrogen) using the X Cell SureLock® Mini-Cell system (Invitrogen) as recommended by the supplier. The gels were Coomassie stained using GelCode® Blue Stain Reagent (Pierce).

S. aureus wild type = assay: Spontaneous mutation control on plectasin plates; format: cell-based, Staphylococcus aureus; conditions: S. aureus wild type grown on TSB with 4, 5 or 10 fold MIC of plectasin
Experimental: The transposon mutant libraries were screened on agar plates for increased resistance to plectasin as compared to wild-type sensitivity. Wild-type sensitivity was determined by plating approx. 1.0 × 10^7 CFU/ml on TSB agar containing plectasin (S. aureus) and approx. 1.0 × 10^5 CFU/ml on Muller Hinton Broth agar plates (MHB, 212322 Becton Dickinson) with plectasin (L. monocytogenes). Plates were incubated at 37°C for 3 days and inspected for growth. The transposon libraries were screened on TSB agar with 300 μg/ml, 500 or 750 μg/ml plectasin (S. aureus) or MHB plates with 250 μg/ml or 500 μg/ml plectasin (L. monocytogenes) at 37°C for up to 7 days.

[4] = system: plasmid DNA (pBluescript II SK+); assay: DNA-binding analysis by in vitro gel retardation; conditions: 100 ng plasmid DNA with increasing amounts of peptide, 1 h at room temperature, data not shown
Experimental: Gel retardation analysis were performed as described by Nan et al by mixing 100 ng of plasmid DNA (pBluescript II SK^+(Stratagene)) with increasing amounts of peptide in 20 μl binding buffer (5% glycerol, 10 mM Tris, 1 mM EDTA, 1 mM dithiothreitol, 20 mM KCL and 50 μg ml^-1 bovine serum albumin). Reaction mixtures were incubated 1 h at room temperature and subjected to 1% agarose gel electrophoresis and visualised using ethidium bromide.

[5] = system: methicillin resistant S. aureus (MRSA); conditions: cited from earlier work
Description: (§2) In the present study, we addressed the response of two human pathogens, S. aureus and L. monocytogenes to plectasin. […] In addition, the two bacteria represent different routes of infection and may be exposed to different arrays of HDPs. S. aureus is a hospital- and community-acquired pathogen that causes a wide range of diseases including septicaemia, toxic-shock syndrome and food poisoning ...

L. monocytogenes [6] = conditions: cited from earlier work
Description: as §2

[7] = system: S. aureus 8325-4 hssR::bursa/pRMC2-hssRS (complementation of hssR transposon mutant); assay: MIC, microbroth dilution; format: cell-based, Staphylococcus aureus; conditions: 8325-4 hssR::bursa/pRMC2-hssRS compared to 8325-4 hssR::bursa, MIC
Experimental: Protamine was purchased from Sigma (P4020-5G). Plectasin, eurocin, novicidin, and novispirin G10 were supplied by Department of Antiinfective Discovery, Novozymes A/S. The host defence peptides were dissolved in 0.01% acetic acid/0.1% bovine serum albumin (Sigma, A7906).
Minimal inhibitory concentrations (MIC) of plectasin, eurocin, protamine, novicidin, and novispirin G10 were determined using a microbroth dilution method. Colonies from a BHI plate incubated overnight at 37 °C were suspended in MHB pH 7.4 to an absorbance at 546 nm of 0.11-0.12 at 546 nm (approx. 1.0 × 10^8 CFU/ml) and diluted in MHB to a concentration of 5.0 × 10^5 CFU/ml. Ninety μl of bacterial suspension was incubated with 10 μl of peptide solution in polypropylene 96-well plates (Nunc, 442587) for 18-24 h at 37°C. The peptide solutions were made fresh on the day of assay. The range of concentrations assayed were 0.25-256 μg/ml for plectasin and eurocin, 0.125-128 μg/ml for protamine and novispirin G10, and 0.031-32 μg/ml for novicidin. MIC was the lowest peptide concentration at which visual growth was inhibited.

S. aureus = assay: ATP leakage (intracellular and extracellular ATP, bioluminescence); format: cell-based, Staphylococcus aureus; conditions: S. aureus, 500 μg/ml peptide, 50 mM HEPES pH 7.0 with 0.2% glucose, vs peptide dilution buffer; two independent experiments
Experimental: L. monocytogenes and S. aureus were grown in TSB at 37°C. Bacteria were harvested (10 min at 3000 RPM) at mid-exponential phase (absorbance at 546 nm of 2.5 ± 0.2 and 1.0 ± 0.2 for S. aureus and L. monocytogenes, respectively), washed once in 50 mM potassium phosphate buffer pH 7.0 and once in 50 mM HEPES buffer pH 7.0. The pellet was resuspended in 50 mM HEPES pH 7.0 to a final absorbance at 546 nm of 10. Bacteria were stored on ice and used within 5 hours. […] ATP was determined using a bioluminescence kit (Sigma, FLAA-1KT) and a BioOrbit 1253 luminometer. Total ATP content was determined by rapidly permeabilising 20 μl cell suspension with 80 μl dimethyl sulfoxide. The cell suspension was diluted in 4.9 ml sterile water, and ATP content was determined in 100 μl of the preparation as described by the manufacturer. To determine the extracellular ATP concentration, the 20 μl cell suspension was mixed with 80 μl sterile water and analyzed as described above. Intracellular ATP concentrations were calculated by using the intracellular volumes of 0.85 and 1.7 μm^3 for S. aureus and L. monocytogenes, respectively. The number of cells in suspension was determined by plate spreading.

CC[C@H](C)[C@@H]1NC(=O)[C@H](CO)NC(=O)[C@H](CCCCN)NC(=O)[C@@H]2CSSC[C@@H](C(=O)N[C@@H](Cc3ccc(O)cc3)C(=O)O)NC(=O)[C@H](CCCCN)NC(=O)[C@@H]3CSSC[C@H](NC(=O)[C@H](CCC(N)=O)NC(=O)[C@H](CCSC)NC(=O)[C@H](CC(=O)O)NC(=O)[C@H](CC(=O)O)NC(=O)[C@H](CCC(=O)O)NC(=O)[C@H](CC(=O)O)NC(=O)[C@H](Cc4c[nH]c5ccccc45)NC(=O)[C@@H]4CCCN4C(=O)CNC(=O)[C@H](CC(N)=O)NC(=O)[C@@H](NC(=O)CNC(=O)[C@H](Cc4ccccc4)NC(=O)CN)CSSC[C@H](NC(=O)[C@H](Cc4ccc(O)cc4)NC(=O)CNC(=O)CNC(=O)[C@H](CCCCN)NC(=O)[C@H](Cc4ccc(O)cc4)NC(=O)CNC(=O)[C@H](CCCCN)NC1=O)C(=O)N[C@@H](C)C(=O)N[C@@H](CCCCN)C(=O)NCC(=O)NCC(=O)N[C@@H](Cc1ccccc1)C(=O)N[C@@H](C(C)C)C(=O)N3)C(=O)N[C@@H](Cc1c[nH]cn1)C(=O)N[C@@H](CC(N)=O)C(=O)N[C@@H](Cc1c[nH]cn1)C(=O)N2 [plectasin]
Growth in the presence of plectasin [1]: inhibited the growth to a level comparable to wild type | Growth in the presence of plectasin [2]: hardly affected the growth | Abundance of extracellular proteins (L. monocytogenes [3]): no difference in the abundance of extracellular proteins | Spontaneous mutations leading to changes in sensitivity (S. aureus wild type): no spontaneous mutations | Binding to DNA [4]: unable to demonstrate binding | MIC [5]: 16 to 32 µg/mL | MIC (L. monocytogenes [6]): above 64 mg/L | Decrease of resistance by complementation [7]: 2 fold | ATP leakage (intracellular ATP concentration) (S. aureus): remained at the same level as the controls
